Results as given in patent US8791123B2, “Substituted pyrazolo[1,5-a]pyrimidine compounds as Trk kinase inhibitors” (Array Biopharma, Inc., priority 2009, dated 2014).
Where two headings read alike, the source gives them in different places.

Tests used:
Format in all cases: biochemical
[1] = molecular target: GST-tagged human Jak3 kinase domain (Homo sapiens (Human), UniProt P52333); assay: Jak3 Inhibition Assay (Omnia kinase assay); details: Table 2; for IC50: 500 μM ATP
Procedure: (§1) The assays described in Examples C, D, E and F for the determination of JAK1, JAK2, JAK3 and Tyk2 kinase activity, respectively, utilized the Omnia® Kinase fluorescence peptide substrate-based technology (Invitrogen). […] The reactions were therefore read at excitation 360 nm and emission was measured at 485 nm every 50 seconds for 45 minutes using a PerkinElmer EnVision Multilabel Plate Reader.
(§2) The final buffer conditions for each of the JAK1, JAK2, JAK3 and Tyk2 assays were as follows: 25 mM HEPES, pH 7.4, 10 mM MgCl2, 0.01% Triton X-100 and 1 mM DTT.
(§3) Compounds were prepared at 50× the final concentration in DMSO by conducting 3-fold serial dilutions from a 500-μM or 1000-μM intermediate dilution to give a 10-point dosing curve having a high dose of 10 or 20 μM. Two-μL aliquots of these were transferred to a fresh plate for a ten-fold intermediate dilution with assay buffer. Five-μL aliquots of the diluted compounds were then transferred to 20-μL of assay mixtures described in Examples C, D, E and F for a final concentration of DMSO of 2%. A standard or reference compound was typically included on each assay plate to validate that plate. For each plate, percent of control (POC) values were calculated for each well according to the following equation:
(§4) [formula] • where • Xmax=Average Uninhibited Controls • Xmin=Average Background IC50's were estimated from the POC's using a standard 4-parameter logistic model:
(§5) [formula] • where • A=Minimum Y (Bottom Asymptote) • B=Maximum Y (Top Asymptote) • C=EC50 • D=Slope Factor • X=Compound Concentration (nM) • Y=POC
(§6) The IC50 is defined as the concentration of inhibitor at which the POC equals 50 for the fitted curve.
Compounds of Formula I were screened for their ability to inhibit Jak3 using the general enzyme inhibition assay method, in which the assay mixture contained 500 μM ATP, 10 μM Omnia® Y7 peptide (Catalog # IVGN KNZ3071C, Invitrogen Corporation, Carlsbad, Calif.) and 1.5 nM Jak3 in a total volume of 20 μL. GST-tagged human Jak3 kinase domain comprising amino acids 781-1124 was purchased from Invitrogen Corporation, Carlsbad, Calif. (catalog # IVGN PV3855).

Human Jak2 kinase domain = Human Jak2 kinase domain (Homo sapiens (Human), UniProt O60674); assay: Jak2 Inhibition Assay (Omnia kinase assay); details: for IC50: 500 μM ATP; for inhibition at 1 µM: 1000 nM test compound
[2] = molecular target: GST-tagged human Jak1 kinase domain (Homo sapiens (Human), UniProt P23458); assay: Jak1 Inhibition Assay (Omnia kinase assay); details: Table 2; for IC50: 500 μM ATP
Procedure: as §1, §2, §3, §4, §5, §6
Compounds of Formula I were screened for their ability to inhibit Jak1 using the general enzyme inhibition assay method, in which the assay mixture contained 500 μM ATP, 8 μM Omnia® Y12 peptide (Catalog # IVGN KPZ3121C; Invitrogen Corporation, Carlsbad, Calif.) and 5 nM Jak1 in a total volume of 20 μL. […] (catalog # IVGN PV4774).

Human Tyk2 kinase domain = Human Tyk2 kinase domain (Homo sapiens (Human), UniProt P29597); assay: Tyk2 Inhibition Assay (Omnia kinase assay); details: Table 2; for IC50: 500 μM ATP
Procedure: as §1, §2, §3, §4, §5, §6
Compounds of Formula I were screened for their ability to inhibit Tyk2 using the general enzyme inhibition assay method, in which the assay mixture contained 500 μM ATP, 8 μM Omnia® Y12 peptide (Catalog # IVGN KPZ3121C; Invitrogen Corporation, Carlsbad, Calif.) and 1 nM Tyk2 in a total volume of 20 μL. Human Tyk2 kinase domain, comprising amino acids 886 to 1187 with 10 additional histidine residues (histidine tag) on the carboxy terminus, was expressed and purified from bacculovirus in-house at Array BioPharma Inc. (Boulder, Colo.). The histidine tag was cleaved after purification using standard conditions.

[3] = molecular target: TrkA (histidine-tagged recombinant human TrkA, cytoplasmic domain) (Homo sapiens (Human), UniProt P04629); assay: TrkA ELISA Assay
How it was run: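 ELISA read-out: a peroxidase-linked anti-phosphotyrosine antibody (PY20, 0.2 μg/mL) with TMB substrate, absorbance at 450 nm after acid stop. The plate-bound substrate was poly(Glu,Ala,Tyr; 6:3:1) at 0.025 mg/mL, phosphorylated by the recombinant His-tagged human TrkA cytoplasmic domain in the presence of inhibitors.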

[4] = Table 1, >1000 nM when >50% inhibition not observed at 1000 nM, read-out: Jak2 Enzyme IC50
[5] = Table 1, ELISA, 500 μM ATP, read-out: TrkA Enzyme IC50

Chain of Human Jak2 kinase domain (O60674 808-1132): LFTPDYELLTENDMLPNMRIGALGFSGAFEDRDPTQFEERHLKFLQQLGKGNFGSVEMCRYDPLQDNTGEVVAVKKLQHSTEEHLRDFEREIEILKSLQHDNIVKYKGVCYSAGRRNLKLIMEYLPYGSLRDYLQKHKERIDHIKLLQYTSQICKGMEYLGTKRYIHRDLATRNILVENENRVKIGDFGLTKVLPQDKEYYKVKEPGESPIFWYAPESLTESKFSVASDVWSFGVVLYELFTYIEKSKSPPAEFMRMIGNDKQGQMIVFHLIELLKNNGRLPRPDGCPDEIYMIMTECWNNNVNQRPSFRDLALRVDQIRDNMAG
Chain of Human Tyk2 kinase domain (P29597 886-1187): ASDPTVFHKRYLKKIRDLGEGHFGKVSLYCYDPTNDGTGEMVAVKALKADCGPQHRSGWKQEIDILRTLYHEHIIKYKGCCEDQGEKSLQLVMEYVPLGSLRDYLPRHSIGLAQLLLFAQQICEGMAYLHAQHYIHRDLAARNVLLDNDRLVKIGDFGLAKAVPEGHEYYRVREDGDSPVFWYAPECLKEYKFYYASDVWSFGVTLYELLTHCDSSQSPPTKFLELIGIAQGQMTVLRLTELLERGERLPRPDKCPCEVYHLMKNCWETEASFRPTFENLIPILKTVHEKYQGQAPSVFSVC
Chain of GST-tagged human Jak1 kinase domain (P23458 866-1154): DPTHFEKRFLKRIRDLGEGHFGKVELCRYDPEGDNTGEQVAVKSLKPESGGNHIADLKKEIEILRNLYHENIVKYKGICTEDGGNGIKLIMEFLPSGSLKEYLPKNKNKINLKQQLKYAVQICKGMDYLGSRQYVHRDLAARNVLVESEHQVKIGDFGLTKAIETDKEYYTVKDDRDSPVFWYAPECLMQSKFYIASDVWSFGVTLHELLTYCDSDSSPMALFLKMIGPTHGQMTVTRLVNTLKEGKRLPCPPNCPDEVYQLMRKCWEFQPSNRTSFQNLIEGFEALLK
Chain of GST-tagged human Jak3 kinase domain (P52333 781-1124): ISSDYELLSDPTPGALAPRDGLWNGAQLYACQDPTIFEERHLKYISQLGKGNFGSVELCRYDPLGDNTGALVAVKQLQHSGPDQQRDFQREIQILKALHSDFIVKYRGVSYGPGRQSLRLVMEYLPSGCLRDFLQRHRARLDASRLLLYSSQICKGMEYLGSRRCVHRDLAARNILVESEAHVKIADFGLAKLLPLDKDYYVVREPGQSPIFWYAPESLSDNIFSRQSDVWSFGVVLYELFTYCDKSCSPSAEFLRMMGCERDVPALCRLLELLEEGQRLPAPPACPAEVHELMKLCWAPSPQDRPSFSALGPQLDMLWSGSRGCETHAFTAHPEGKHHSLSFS
Chain of TrkA (histidine-tagged recombinant human TrkA, cytoplasmic domain) (P04629 440-796): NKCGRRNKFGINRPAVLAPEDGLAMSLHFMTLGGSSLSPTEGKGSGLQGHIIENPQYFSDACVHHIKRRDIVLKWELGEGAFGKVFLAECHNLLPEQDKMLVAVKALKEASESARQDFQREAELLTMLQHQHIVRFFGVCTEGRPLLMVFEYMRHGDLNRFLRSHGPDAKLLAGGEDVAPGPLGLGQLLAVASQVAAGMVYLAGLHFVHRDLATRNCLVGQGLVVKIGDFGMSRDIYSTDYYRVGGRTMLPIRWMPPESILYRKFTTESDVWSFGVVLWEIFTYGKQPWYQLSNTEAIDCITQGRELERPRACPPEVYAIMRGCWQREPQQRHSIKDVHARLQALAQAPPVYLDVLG

IC50 [1] | inhibition at 1 µM ([1]; read-out: Jak3 (% inhibition at 1000 nM), 1000 nM test compound) | IC50 (Human Jak2 kinase domain; [4]) | IC50 (Human Jak2 kinase domain; Table 2, read-out: Jak2 IC50) | inhibition at 1 µM (Human Jak2 kinase domain; read-out: Jak2 (% inhibition at 1000 nM), Table 2) | inhibition at 1 µM (Human Jak2 kinase domain; read-out: Jak2 Enzyme (% inhibition at 1000 nM), Table 1) | IC50 [2] | inhibition at 1 µM ([2]; read-out: Jak1 (% inhibition at 1000 nM), 1000 nM test compound) | IC50 (Human Tyk2 kinase domain) | inhibition at 1 µM (Human Tyk2 kinase domain; read-out: Tyk2 (% inhibition at 1000 nM), 1000 nM test compound) | IC50 [3, 5] | IC50 ([3]; Table 2, read-out: TrkA IC50) | SMILES
> 1 µM | 8.9% | > 1 µM | > 1 µM | 18.1% | 5.2% | > 1 µM | 12.8% | > 1 µM | 10.7% | 0.0171 µM | 0.0298 µM | Cc1ncc(F)cc1[C@H]1CCCN1c1ccn2ncc(C(=O)NC3CC3)c2n1 (stereo in doubt) [Example 181, N-cyclopropyl-5-(2-(5-fluoro-2-methylpyridin-3-yl)pyrrolidin-1-yl)pyrazolo[1,5-a]pyrimidine-3-carboxamide]
> 1 µM | – | 0.759 µM | 0.759 µM | – | – | > 1 µM | – | > 1 µM | – | 0.0029 µM | 0.0029 µM | C[C@H](NC(=O)c1cnn2ccc(N3CCC[C@@H]3c3cncc(F)c3)nc12)C1CC1 [Example 124, N-((S)-1-cyclopropylethyl)-5-((R)-2-(5-fluoropyridin-3-yl)pyrrolidin-1-yl)pyrazolo[1,5-a]pyrimidine-3-carboxamide]
> 1 µM | – | – | – | – | – | 0.546 µM | – | – | – | – | – | COc1ncc(F)cc1[C@H]1CCCN1c1ccn2ncc(C(=O)N[C@H]3CC[C@H](O)CC3)c2n1 [Example 140, 5-((R)-2-(5-fluoro-2-methoxypyridin-3-yl)pyrrolidin-1-yl)-N-((trans)-4-hydroxycyclohexyl)pyrazolo[1,5-a]pyrimidine-3-carboxamide]
> 1 µM | – | > 1 µM | > 1 µM | – | – | > 1 µM | – | > 1 µM | – | 0.0024 µM | 0.0024 µM | Cc1ncc(F)cc1[C@H]1CCCN1c1ccn2ncc(C(=O)NC3(C)CC3)c2n1 [Example 190, (R)-5-(2-(5-fluoro-2-methylpyridin-3-yl)pyrrolidin-1-yl)-N-(1-methylcyclopropyl)pyrazolo[1,5-a]pyrimidine-3-carboxamide]
– | – | > 1 µM | – | – | – | – | – | – | – | 0.0101 µM | – | Cn1cc(F)cc([C@H]2CCCN2c2ccn3ncc(C(=O)Nc4ccc(F)cn4)c3n2)c1=O [Example 239, (R)-5-(2-(5-fluoro-1-methyl-2-oxo-1,2-dihydropyridin-3-yl)pyrrolidin-1-yl)-N-(5-fluoropyridin-2-yl)pyrazolo[1,5-a]pyrimidine-3-carboxamide]

More lines, now with the values behind:

SMILES | IC50 [1] | inhibition at 1 µM ([1]; read-out: Jak3 (% inhibition at 1000 nM), 1000 nM test compound) | IC50 (Human Jak2 kinase domain; [4]) | IC50 (Human Jak2 kinase domain; Table 2, read-out: Jak2 IC50) | inhibition at 1 µM (Human Jak2 kinase domain; read-out: Jak2 (% inhibition at 1000 nM), Table 2) | inhibition at 1 µM (Human Jak2 kinase domain; read-out: Jak2 Enzyme (% inhibition at 1000 nM), Table 1) | IC50 [2] | inhibition at 1 µM ([2]; read-out: Jak1 (% inhibition at 1000 nM), 1000 nM test compound) | IC50 (Human Tyk2 kinase domain) | inhibition at 1 µM (Human Tyk2 kinase domain; read-out: Tyk2 (% inhibition at 1000 nM), 1000 nM test compound) | IC50 [3, 5] | IC50 ([3]; Table 2, read-out: TrkA IC50)
NC(=O)c1cnn2ccc(N3CCC[C@@H]3c3cc(F)ccc3F)nc12 [Example 30, (R)-5-(2-(2,5-difluorophenyl)pyrrolidin-1-yl)pyrazolo[1,5-a]pyrimidine-3-carboxamide] | > 1 µM | – | > 1 µM | > 1 µM | – | – | > 1 µM | – | > 1 µM | – | 0.00195 µM | 0.0019 µM
O=C(NC1CC1)c1cnn2ccc(N3CCC[C@@H]3c3cncc(F)c3)nc12 [Example 52, (R)—N-cyclopropyl-5-(2-(5-fluoropyridin-3-yl)pyrrolidin-1-yl)pyrazolo[1,5-a]pyrimidine-3-carboxamide] | > 1 µM | – | > 1 µM | > 1 µM | – | – | > 1 µM | – | > 1 µM | – | 0.0074 µM | 0.0074 µM
CC1(NC(=O)c2cnn3ccc(N4CCC[C@@H]4c4cncc(F)c4)nc23)CC1 [Example 91, (R)-5-(2-(5-fluoropyridin-3-yl)pyrrolidin-1-yl)-N-(1-methylcyclopropyl)pyrazolo[1,5-a]pyrimidine-3-carboxamide] | > 1 µM | – | > 1 µM | > 1 µM | – | – | > 1 µM | – | > 1 µM | – | 0.0032 µM | 0.0032 µM
CC(C)NC(=O)c1cnn2ccc(N3CCC[C@@H]3c3cncc(F)c3)nc12 [Example 93, (R)-5-(2-(5-fluoropyridin-3-yl)pyrrolidin-1-yl)-N-isopropylpyrazolo[1,5-a]pyrimidine-3-carboxamide] | > 1 µM | – | > 1 µM | > 1 µM | – | – | > 1 µM | – | > 1 µM | – | 0.0051 µM | 0.0051 µM
O=C(NC1(C(F)(F)F)CC1)c1cnn2ccc(N3CCC[C@@H]3c3cncc(F)c3)nc12 [Example 98, (R)-5-(2-(5-fluoropyridin-3-yl)pyrrolidin-1-yl)-N-(1-(trifluoromethyl)cyclopropyl)pyrazolo[1,5-a]pyrimidine-3-carboxamide] | > 1 µM | – | > 1 µM | > 1 µM | – | – | > 1 µM | – | > 1 µM | – | 0.009 µM | 0.009 µM
O=C(NCC1CC1)c1cnn2ccc(N3CCC[C@@H]3c3cncc(F)c3)nc12 [Example 106, (R)-N-(cyclopropylmethyl)-5-(2-(5-fluoropyridin-3-yl)pyrrolidin-1-yl)pyrazolo[1,5-a]pyrimidine-3-carboxamide] | > 1 µM | – | > 1 µM | > 1 µM | – | – | > 1 µM | – | > 1 µM | – | 0.0077 µM | 0.0076 µM
CNC(=O)c1cnn2ccc(N3CCC[C@@H]3c3cncc(F)c3)nc12 [Example 114, (R)-5-(2-(5-fluoropyridin-3-yl)pyrrolidin-1-yl)-N-methylpyrazolo[1,5-a]pyrimidine-3-carboxamide] | > 1 µM | – | > 1 µM | > 1 µM | – | – | > 1 µM | – | > 1 µM | – | 0.0299 µM | 0.0171 µM
C[C@@H](NC(=O)c1cnn2ccc(N3CCC[C@@H]3c3cncc(F)c3)nc12)C1CC1 [Example 123, N-((R)-1-cyclopropylethyl)-5-((R)-2-(5-fluoropyridin-3-yl)pyrrolidin-1-yl)pyrazolo[1,5-a]pyrimidine-3-carboxamide] | > 1 µM | – | > 1 µM | > 1 µM | – | – | > 1 µM | – | > 1 µM | – | 0.0064 µM | 0.0063 µM
